According to patent US9615577B2, “Herbicidally active cyclic dione compounds, or derivatives therefor, substituted by a phenyl which has an alkynyl-containing substituent” (Syngenta Limited, priority 2012, dated 2017):

Tests used:
Assay type in all cases: in vivo
[1] = system: Triticum aestivum (TRZAW, winter wheat); test: Test 1B glasshouse assay for herbicidal activity, post-emergence; details: 360 h
Procedure: (§1) Seeds of a variety of monocotyledonous and dicotyledonous test plants are sown in standard soil in pots. The plants are cultivated for one day (for pre-emergence) or for about 12 days (range=10-13 days) (for post-emergence) under controlled conditions in a glasshouse (warm climate species at 24/18° C., cool climate species at 20/16° C., both at day/night; 16 hours light; 65% humidity).
(§2) An “instant formulation”, known as the “IF50”, containing 50 g/liter (i.e. 5% w/v) of the “technical” (i.e. unformulated) active ingredient is prepared by dissolving the active ingredient in a mixture of organic solvents and emulsifier, details of which are provided in the Table below. This IF50 is then mixed with a small, variable amount of acetone to aid dissolution, before addition of a 0.2% v/v aqueous solution of the adjuvant X-77 (which is a mixture of alkyl aryl polyoxyethylene glycols and free fatty acids in isopropanol, CAS Registry number 11097-66-8), as the aqueous diluent, to form an aqueous spray solution which contains a predetermined concentration of the active ingredient (which varies depending on the application rate of the active ingredient to the plants) and 0.2% v/v of the adjuvant X-77. This aqueous spray solution is then sprayed onto the plants, after one day's cultivation (for pre-emergence) or after about 12 days' cultivation (for post-emergence).
(§3) The test plants are then grown on, in a glasshouse (greenhouse) under controlled conditions (at either 24/18° C. or 20/16° C. (day/night) as mentioned above; 16 hours light; 65% humidity) and are watered twice daily. Either 15 days after application of the herbicide (15 DAA) (for post-emergence), or 20 days after application of the herbicide (20 DAA) (for pre-emergence), the test plants are evaluated visually, and an assessed percentage phytotoxicity score is given for each herbicidal application on each plant species (where 100%=total damage to plant; 0%=no damage to plant).
(§4) Cool climate crop plants: Triticum aestivum (TRZAW, winter wheat), Brassica napus (BRSNN, rape, also called oilseed rape or rapeseed), Beta vulgaris (BEAVA, sugar beet).

[2] = system: Brassica napus (BRSNN, rape); test: as above; details: 360 h
Procedure: as §1, §2, §3, §4

[3] = system: Glycine max (GLXMA, soybean); test: as above; details: 360 h
Procedure: as §1, §2, §3
Warm climate crop plants: Glycine max (GLXMA, soybean).

[4] = system: Echinochloa crus-galli (ECHCG); test: as above; details: Echinochloa crus-galli
Procedure: as §1, §2, §3
(§5) Warm climate (“warm season”) grassy monocotyledonous weeds: Setaria faberi (SETFA), SORVU (Sorghum bicolor (L.) Moench ssp. Bicolor, or Sorghum vulgare Pers.), Digitaria sanguinalis (DIGSA), Echinochloa crus-galli (ECHCG), and Brachiaria plantaginea (BRAPL).
Note: The herbicidal activity data (e.g. post-emergence) shown above in Biological Example 1B for Comparator compounds X-9 and X-10 is thought likely to have been measured some years ago, probably using a variant of the above-described test method. Also, for the post-emergence activity of X-9 and X-10 it is not currently known exactly how many days after application of the herbicide the phytotoxicity on the plants was measured.

[5] = system: Setaria faberi (SETFA); test: as above; details: 360 h
Procedure: as §1, §2, §3, §5

[6] = system: Digitaria sanguinalis (DIGSA); test: as above; details: 360 h
Procedure: as §1, §2, §3, §5

[7] = system: Brachiaria plantaginea (BRAPL); test: as above; details: Urochloa plantaginea
Procedure: as §1, §2, §3, §5

[8] = system: Avena fatua (AVEFA); test: as above; details: 360 h
Procedure: as §1, §2, §3
(§6) Cool climate (“cool season”) grassy monocotyledonous weeds: Alopecurus myosuroides (ALOMY), Avena fatua (AVEFA), Lolium perenne (LOLPE).

[9] = system: Lolium perenne (LOLPE); test: as above; details: 360 h
Procedure: as §1, §2, §3, §6

[10] = system: Alopecurus myosuroides (ALOMY); test: as above; details: 360 h
Procedure: as §1, §2, §3, §6

[11] = system: Echinochloa crus-galli (ECHCG); test: Test 1A glasshouse assay for herbicidal activity, post-emergence; details: 312 h, evaluated after 13 days, read-out: percentage phytotoxicity ECHCG
Procedure: (§7) Seeds of a variety of test species were sown in standard soil in pots. After cultivation for one day (pre-emergence) or after 8 days cultivation (post-emergence) under controlled conditions in a glasshouse (at 24/16° C., day/night; 14 hours light; 65% humidity), the plants were sprayed with an aqueous spray solution derived from the formulation of the technical active ingredient in acetone/I water (50:50) solution containing 0.5% Tween 20 (polyoxyethelyene sorbitan monolaurate, CAS RN 9005-64-5). The test plants were then grown in a glasshouse under controlled conditions in a glasshouse (at 24/16° C., day/night; 14 hours light; 65% humidity) and watered twice daily. After 13 days for pre and post-emergence, the test was evaluated visually for percentage phytotoxicity to the plant (where 100=total damage to plant; 0=no damage to plant).
(§8) Alopecurus myosuroides (ALOMY), Setaria faberi (SETFA), Echinochloa crus-galli (ECHCG), Solanum nigrum (SOLNI), Amaranthus retroflexus (AMARE), Ipomoea hederacea (IPOHE), and Abutilon theophasti Medik. (ABUTH, common English name “velvetleaf”). Of these, Alopecurus myosuroides (ALOMY), Setaria faberi (SETFA), and Echinochloa crus-galli (ECHCG) are grassy monocotyledonous weeds.

[12] = system: Setaria faberi (SETFA); test: as above; details: 312 h, evaluated after 13 days, read-out: percentage phytotoxicity SETFA
Procedure: as §7, §8

[13] = system: Abutilon theophasti Medik. (ABUTH); test: as above; details: 312 h, evaluated after 13 days, read-out: percentage phytotoxicity ABUTH
Procedure: as §7, §8

[14] = system: Alopecurus myosuroides (ALOMY); test: as above; details: 312 h, evaluated after 13 days, read-out: percentage phytotoxicity ALOMY
Procedure: as §7, §8

[15] = system: Amaranthus retroflexus (AMARE); test: as above; details: 312 h, evaluated after 13 days, read-out: percentage phytotoxicity AMARE
Procedure: as §7, §8

[16] = system: Echinochloa crus-galli (ECHCG); test: Test 1A glasshouse assay for herbicidal activity, pre-emergence; details: 312 h, evaluated after 13 days, read-out: percentage phytotoxicity ECHCG
Procedure: as §7, §8

[17] = system: Setaria faberi (SETFA); test: as above; details: 312 h, evaluated after 13 days, read-out: percentage phytotoxicity SETFA
Procedure: as §7, §8

[18] = system: Abutilon theophasti Medik. (ABUTH); test: as above; details: 312 h, evaluated after 13 days, read-out: percentage phytotoxicity ABUTH
Procedure: as §7, §8

[19] = system: Alopecurus myosuroides (ALOMY); test: as above; details: 312 h, evaluated after 13 days, read-out: percentage phytotoxicity ALOMY
Procedure: as §7, §8

[20] = system: Amaranthus retroflexus (AMARE); test: as above; details: 312 h, evaluated after 13 days, read-out: percentage phytotoxicity AMARE
Procedure: as §7, §8

[21] = system: Amarantus retroflexus (AMARE); test: Biological Example 2 comparative herbicidal data, post-emergence glasshouse screen; details: Amaranthus retroflexus, read-out: Post-emergence herbicidal activities (percentage phytotoxicity) AMARE
[22] = system: Echinochloa crus-galli (ECHCG); test: as above; details: 312 h, read-out: Post-emergence herbicidal activities (percentage phytotoxicity) ECHCG
Procedure: as §7
(§9) Comparative herbicidal data is given below for certain exemplified compounds with 4-(prop-1-ynyl)-2,6-dimethylphenyl or 4-(chloroethynyl)-2,6-dimethylphenyl headgroups, compared to the corresponding compounds with either 4-ethynyl-2,6-dimethylphenyl or 2,4,6-trimethylphenyl headgroups, as follows. Comparative herbicidal data is also given below for certain exemplified compounds with 4-(prop-1-ynyl)-2-chloro-6-methoxyphenyl headgroups, compared to the corresponding compounds with 4-ethynyl-2-chloro-6-methoxyphenyl or 4-(but-1-ynyl)-2-chloro-6-methoxyphenyl or 4-methyl-2-chloro-6-methoxyphenyl or 2-chloro-6-methoxyphenyl headgroups, as follows.
(§10) Except where specified otherwise, the glasshouse screen for herbicidal activity is substantially the same as that presented in Biological Example 1A (Test 1A) hereinabove. The weed abbreviations are as defined in Biological Example 1A.

[23] = system: Setaria faberi (SETFA); test: as above; details: 312 h, read-out: Post-emergence herbicidal activities (percentage phytotoxicity) SETFA
Procedure: as §7, §9, §10

[24] = system: Alopecurus myosuroides (ALOMY); test: as above; details: 312 h, read-out: Post-emergence herbicidal activities (percentage phytotoxicity) ALOMY
Procedure: as §7, §9, §10

[25] = system: Abutilon theophasti Medik. (ABUTH); test: as above; details: read-out: Post-emergence herbicidal activities (percentage phytotoxicity) ABUTH

Cc1cc(C)c(C2C(=O)C3CCC(C3)C2=O)c(C)c1 (centres unmarked) [Compound X-9, reference compound]
plant injury at 60 g/ha ([1]; 60 g/ha application rate): 0%
plant injury at 125 g/ha ([1]; 125 g/ha application rate): 0%
plant injury at 60 g/ha ([2]; 60 g/ha application rate): 0%
plant injury at 125 g/ha ([2]; 125 g/ha application rate): 20%
plant injury at 60 g/ha ([3]; 60 g/ha application rate): 0%
plant injury at 125 g/ha ([3]; 125 g/ha application rate): 0%
pest or weed control at 60 g/ha ([4]; 60 g/ha application rate): 40%
pest or weed control at 125 g/ha ([4]; 125 g/ha application rate): 60%
pest or weed control at 60 g/ha ([5]; 60 g/ha application rate): 80%
pest or weed control at 125 g/ha ([5]; 125 g/ha application rate): 80%
pest or weed control at 60 g/ha ([6]; 60 g/ha application rate): 70%
pest or weed control at 125 g/ha ([6]; 125 g/ha application rate): 80%
pest or weed control at 60 g/ha ([7]; 60 g/ha application rate): 80%
pest or weed control at 125 g/ha ([7]; 125 g/ha application rate): 80%
pest or weed control at 60 g/ha ([8]; 60 g/ha application rate): 0%
pest or weed control at 125 g/ha ([8]; 125 g/ha application rate): 0%
pest or weed control at 60 g/ha ([9]; 60 g/ha application rate): 0%
pest or weed control at 125 g/ha ([9]; 125 g/ha application rate): 40%
pest or weed control at 60 g/ha ([10]; 60 g/ha application rate): 20%
pest or weed control at 125 g/ha ([10]; 125 g/ha application rate): 40%

C#Cc1cc(C)c(C2C(=O)CC(c3ccccn3)CC2=O)c(C)c1 (centres unmarked) [Compound X-4, reference compound]
pest or weed control at 30 g/ha ([11]; 30 g/ha): 40%
pest or weed control at 250 g/ha ([11]; 250 g/ha): 100%
pest or weed control at 30 g/ha ([12]; 30 g/ha): 50%
pest or weed control at 250 g/ha ([12]; 250 g/ha): 100%
pest or weed control at 30 g/ha ([13]; 30 g/ha): 0%
pest or weed control at 250 g/ha ([13]; 250 g/ha): 80%
pest or weed control at 30 g/ha ([14]; 30 g/ha): 60%
pest or weed control at 250 g/ha ([14]; 250 g/ha): 80%
pest or weed control at 30 g/ha ([15]; 30 g/ha): 0%
pest or weed control at 250 g/ha ([15]; 250 g/ha): 0%
pest or weed control at 30 g/ha ([16]; 30 g/ha): 30%
pest or weed control at 250 g/ha ([16]; 250 g/ha): 90%
pest or weed control at 30 g/ha ([17]; 30 g/ha): 40%
pest or weed control at 250 g/ha ([17]; 250 g/ha): 100%
pest or weed control at 30 g/ha ([18]; 30 g/ha): 0%
pest or weed control at 250 g/ha ([18]; 250 g/ha): 0%
pest or weed control at 30 g/ha ([19]; 30 g/ha): 0%
pest or weed control at 250 g/ha ([19]; 250 g/ha): 70%
pest or weed control at 30 g/ha ([20]; 30 g/ha): 0%
pest or weed control at 250 g/ha ([20]; 250 g/ha): 0%
pest or weed control at 8 g/ha ([21]; 8 g/ha application rate): 0%
pest or weed control at 30 g/ha ([21]; 30 g/ha application rate): 0%
pest or weed control at 8 g/ha ([22]; 8 g/ha application rate): 20%
pest or weed control at 30 g/ha ([22]; 30 g/ha application rate): 40%
pest or weed control at 8 g/ha ([23]; 8 g/ha application rate): 40%
pest or weed control at 30 g/ha ([23]; 30 g/ha application rate): 50%
pest or weed control at 8 g/ha ([24]; 8 g/ha application rate): 40%
pest or weed control at 30 g/ha ([24]; 30 g/ha application rate): 60%
pest or weed control at 8 g/ha ([25]; 8 g/ha application rate): 0%
pest or weed control at 30 g/ha ([25]; 30 g/ha application rate): 0%
